Test results as given in patent publication US9169254B2, “Spiroimidazolone derivative” (Chugai Seiyaku Kabushiki Kaisha, priority 2009, dated 2015).

target: T1, human PTH1 receptor (Homo sapiens, UniProt Q03431); test: In vitro cAMP signal activity in HKRK-B7 cells (LLC-PK1 cells overexpressing the human PTH1 receptor); assay type: cell-based; conditions: HKRK-B7 cells; compound at 1×10^−3 M; cAMP produced as percentage of that produced by hPTH(1-34) at 100 nM
T1 sequence (Q03431 27-593): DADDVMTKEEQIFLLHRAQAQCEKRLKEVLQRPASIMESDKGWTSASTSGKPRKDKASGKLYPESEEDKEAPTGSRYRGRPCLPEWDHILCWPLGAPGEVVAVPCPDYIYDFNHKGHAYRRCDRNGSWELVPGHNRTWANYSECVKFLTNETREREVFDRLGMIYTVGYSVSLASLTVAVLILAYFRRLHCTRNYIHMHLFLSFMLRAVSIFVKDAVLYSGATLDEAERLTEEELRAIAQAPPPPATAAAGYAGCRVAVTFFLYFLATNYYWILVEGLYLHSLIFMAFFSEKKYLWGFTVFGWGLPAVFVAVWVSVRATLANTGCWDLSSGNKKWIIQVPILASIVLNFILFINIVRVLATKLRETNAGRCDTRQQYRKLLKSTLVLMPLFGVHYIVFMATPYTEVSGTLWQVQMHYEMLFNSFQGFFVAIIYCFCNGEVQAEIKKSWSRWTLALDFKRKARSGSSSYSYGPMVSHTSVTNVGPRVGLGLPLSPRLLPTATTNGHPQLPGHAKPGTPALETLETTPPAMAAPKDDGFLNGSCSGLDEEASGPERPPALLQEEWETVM

Going from CC1(C)OC[C@H](Cn2ccc3c(/C=C/S(=O)(=O)N4CCC5(CC4)N=C(C4CCC(C(F)(F)F)CC4)NC5=O)cccc32)O1 (stereo partly drawn) [Compound 245, 8-{(E)-2-[1-((S)-2,2-dimethyl-[1,3]dioxolan-4-ylmethyl)-1H-indol-4-yl]-ethenesulfonyl}-2-(4-trifluoromethyl-cyclohexyl)-1,3,8-triaza-spiro[4.5]dec-1-en-4-one] to O=C1NC(C2CCCCC2)=NC12CCN(S(=O)(=O)/C=C/c1cccc3c1ccn3CCC(O)CO)CC2 (centres unmarked) [Compound 480, 2-cyclohexyl-8-{(E)-2-[1-(3,4-dihydroxy-butyl)-1H-indol-4-yl]-ethenesulfonyl}-1,3,8-triaza-spiro[4.5]dec-1-en-4-one], the “cAMP production activity (%)” value rises from 34% to 44%.

Compared with Cc1cc(S(=O)(=O)NCCCCO)ccc1CCS(=O)(=O)N1CCC2(CC1)N=C(c1cccc(OC(F)(F)F)c1)NC2=O [Compound 287, N-(4-hydroxy-butyl)-3-methyl-4-{2-[4-oxo-2-(3-trifluoromethoxy-phenyl)-1,3,8-triaza-spiro[4.5]dec-1-ene-8-sulfonyl]-ethyl}-benzenesulfonamide], CN(C)C(=O)c1ccc(CCS(=O)(=O)N2CCC3(CC2)N=C(c2cccc(OC(F)(F)F)c2)NC3=O)c(F)c1 [Compound 293, 3-fluoro-N,N-dimethyl-4-{2-[4-oxo-2-(3-trifluoromethoxy-phenyl)-1,3,8-triaza-spiro[4.5]dec-1-ene-8-sulfonyl]-ethyl}-benzamide] is lower in “cAMP production activity (%)” value: 58% for the first, 38% for the second.

Going from O=C1NC(C2CCC(C(F)(F)F)CC2)=NC12CCN(S(=O)(=O)CCc1cccc3c1ccn3C[C@H](O)CO)CC2 (stereo partly drawn) [Compound 322, 8-{2-[1-((S)-2,3-dihydroxy-propyl)-1H-indol-4-yl]-ethanesulfonyl}-2-(4-trifluoromethyl-cyclohexyl)-1,3,8-triaza-spiro[4.5]dec-1-en-4-one] to O=C1NC(C2CCC(CCC(F)(F)F)CC2)=NC12CCN(S(=O)(=O)CCc1cccc3c1ccn3CCOC[C@H](O)[C@@H](O)CO)CC2 (stereo partly drawn) [Compound 823, 2-[4-(3,3,3-trifluoro-propyl)-cyclohexyl]-8-(2-{1-[2-((2S,3S)-2,3,4-trihydroxy-butoxy)-ethyl]-1H-indol-4-yl}-ethanesulfonyl)-1,3,8-triaza-spiro[4.5]dec-1-en-4-one], the “cAMP production activity (%)” value rises from 75% to 103%.

First: CC(=O)OC[C@H](CN(C(C)=O)c1ccc(CCS(=O)(=O)N2CCC3(CC2)N=C(c2cccc(C(F)(F)F)c2)NC3=O)c(C)c1)OC(C)=O [Compound 150, Acetic acid (S)-1-acetoxymethyl-2-[acetyl-(3-methyl-4-{2-[4-oxo-2-(3-trifluoromethyl-phenyl)-1,3,8-triaza-spiro[4.5]dec-1-ene-8-sulfonyl]-ethyl}-phenyl)-amino]-ethyl ester]
Second: Cc1cc(C(=O)N2CCN(S(C)(=O)=O)CC2)ccc1CCS(=O)(=O)N1CCC2(CC1)N=C(c1cccc(C(F)(F)F)c1)NC2=O [Compound 352, 8-{2-[4-(4-Methanesulfonyl-piperazine-1-carbonyl)-2-methyl-phenyl]-ethanesulfonyl}-2-(3-trifluoromethyl-phenyl)-1,3,8-triaza-spiro[4.5]dec-1-en-4-one]
The “cAMP production activity (%)” value of the first is higher: 62% for the first, 19% for the second.

Compared with Cc1cc(C(=O)N2CCC(N(C)C)CC2)cc(C)c1/C=C/S(=O)(=O)N1CCC2(CC1)N=C(c1cccc(OC(F)(F)F)c1)NC2=O [Compound 405, 8-{(E)-2-[4-(4-dimethylamino-piperidine-1-carbonyl)-2,6-dimethyl-phenyl]-ethenesulfonyl}-2-(3-trifluoromethoxy-phenyl)-1,3,8-triaza-spiro[4.5]dec-1-en-4-one], Cc1cc(N(CCN(C)C)S(C)(=O)=O)cc(C)c1/C=C/S(=O)(=O)N1CCC2(CC1)N=C(c1cccc(OC(F)(F)F)c1)NC2=O [Compound 609, N-(2-dimethylamino-ethyl)-N-(3,5-dimethyl-4-{(E)-2-[4-oxo-2-(3-trifluoromethoxy-phenyl)-1,3,8-triaza-spiro[4.5]dec-1-ene-8-sulfonyl]-vinyl}-phenyl)-methane sulfonamide] is higher in “cAMP production activity (%)” value: 7.7% for the first, 46% for the second.

First: Cc1cc2ccc1CCS(=O)(=O)N1CCC3(CC1)N=C(NC3=O)c1cc(cc(C(F)(F)F)c1)OCCCCCOCCNC2=O [Compound 1427]
Second: Cc1cc(C(=O)N2CCC(C)(O)CC2)cc(C)c1/C=C/[S@TB4](=O)(=O)N1CCC2(CC1)N=C(c1ccc(C(F)(F)F)c(C(F)(F)F)c1)NC2=O [Compound 1095, 2-(3,4-bis-trifluoromethyl-phenyl)-8-{(E)-2-[4-(4-hydroxy-4-methyl-piperidine-1-carbonyl)-2,6-dimethyl-phenyl]-ethenesulfonyl}-1,3,8-triaza-spiro[4.5]dec-1-en-4-one]
The “cAMP production activity (%)” value of the first is lower: 72% for the first, 105% for the second.

First: Cc1cc(N2C(=O)CNC2=O)cc(C)c1CCS(=O)(=O)N1CCC2(CC1)N=C(C1CCC(C(C)C)CC1)NC2=O (centres unmarked) [Compound 884, 3-(4-{2-[2-(4-isopropyl-cyclohexyl)-4-oxo-1,3,8-triaza-spiro[4.5]dec-1-ene-8-sulfonyl]-ethyl}-3,5-dimethyl-phenyl)-imidazolidine-2,4-dione]
Second: CC(=O)N(CCOCCO)c1cc(C)c(CCS(=O)(=O)N2CCC3(CC2)N=C(C2CCC(CCC(F)(F)F)CC2)NC3=O)c(C)c1 (centres unmarked) [Compound 820, N-[3,5-dimethyl-4-(2-{4-oxo-2-[4-(3,3,3-trifluoro-propyl)-cyclohexyl]-1,3,8-triaza-spiro[4.5]dec-1-ene-8-sulfonyl}-ethyl)-phenyl]-N-[2-(2-hydroxy-ethoxy)-ethyl]-acetamide]
The “cAMP production activity (%)” value of the first is lower: 59% for the first, 98% for the second.

Going from Cc1cc(C(=O)N2CCC(C)(O)CC2)cc(C)c1/C=C/S(=O)(=O)N1CCC2(CC1)N=C(c1ccc(OC(F)(F)C(F)F)cc1)NC2=O [Compound 1213, 8-{(E)-2-[4-(4-hydroxy-4-methyl-piperidine-1-carbonyl)-2,6-dimethyl-phenyl]-ethenesulfonyl}-2-[4-(1,1,2,2-tetrafluoro-ethoxy)-phenyl]-1,3,8-triaza-spiro[4.5]dec-1-en-4-one] to Cc1cc(C(=O)N2CCC(C)(O)CC2)cc(C)c1/C=C/S(=O)(=O)N1CCC2(CC1)N=C(c1ccc(OCCCC(F)(F)C(F)(F)F)c(F)c1)NC2=O [Compound 1207, 2-[3-fluoro-4-(4,4,5,5,5-pentafluoro-pentyloxy)-phenyl]-8-{(E)-2-[4-(4-hydroxy-4-methyl-piperidine-1-carbonyl)-2,6-dimethyl-phenyl]-ethenesulfonyl}-1,3,8-triaza-spiro[4.5]dec-1-en-4-one], the “cAMP production activity (%)” value rises from 80% to 112%.

Going from Cc1cc(N2C(=O)CC[C@@H]2CO)ccc1CCS(=O)(=O)N1CCC2(CC1)N=C(c1ccc(F)c(C(F)(F)F)c1)NC2=O [Compound 857, 2-(4-fluoro-3-trifluoromethyl-phenyl)-8-{2-[4-((R)-2-hydroxymethyl-5-oxo-pyrrolidin-1-yl)-2-methyl-phenyl]-ethanesulfonyl}-1,3,8-triaza-spiro[4.5]dec-1-en-4-one] to CCCc1ccc(-c2cccc(C3=NC4(CCN(S(=O)(=O)CCc5c(C)cc(N(C)C(N)=O)cc5C)CC4)C(=O)N3)c2)cc1 [Compound 1152, 1-(3,5-Dimethyl-4-{2-[4-oxo-2-(4′-propyl-biphenyl-3-yl)-1,3,8-triaza-spiro[4.5]dec-1-ene-8-sulfonyl]-ethyl}-phenyl)-1-methyl-urea], the “cAMP production activity (%)” value falls from 89% to 0.8%.

First: Cc1cc(NS(N)(=O)=O)ccc1/C=C/S(=O)(=O)N1CCC2(CC1)N=C(c1cccc(OC(F)(F)F)c1)NC2=O [Compound 742, N-(3-Methyl-4-{(E)-2-[4-oxo-2-(3-trifluoromethoxy-phenyl)-1,3,8-triaza-spiro[4.5]dec-1-ene-8-sulfonyl]-vinyl}-phenyl)-sulfamide]
Second: Cc1cc(OCCCN(C)C)ccc1/C=C/S(=O)(=O)N1CCC2(CC1)N=C(c1cccc(OC(F)(F)F)c1)NC2=O [Compound 235, 8-{(E)-2-[4-(3-dimethylamino-propoxy)-2-methyl-phenyl]-ethenesulfonyl}-2-(3-trifluoromethoxy-phenyl)-1,3,8-triaza-spiro[4.5]dec-1-en-4-one]
The “cAMP production activity (%)” value of the first is higher: 50% for the first, 49% for the second.

First: CCC1CCC(C2=NC3(CCN(S(=O)(=O)CCc4ccc(C(=O)N5CCN(C6COC6)CC5)cc4C)CC3)C(=O)N2)CC1 (centres unmarked) [Compound 976, 2-(4-ethyl-cyclohexyl)-8-{2-[2-methyl-4-(4-oxetan-3-yl-piperazine-1-carbonyl)-phenyl]-ethanesulfonyl}-1,3,8-triaza-spiro[4.5]dec-1-en-4-one]
Second: CNCc1cc(C)c(/C=C/S(=O)(=O)N2CCC3(CC2)N=C(C2CCC(CCC(F)(F)F)CC2)NC3=O)c(C)c1 (centres unmarked) [Compound 1292, 8-[(E)-2-(2,6-dimethyl-4-methylaminomethyl-phenyl)-ethenesulfonyl]-2-[4-(3,3,3-trifluoro-propyl)-cyclohexyl]-1,3,8-triaza-spiro[4.5]dec-1-en-4-one]
The “cAMP production activity (%)” value of the first is higher: 73% for the first, 14% for the second.

For O=C1NC(C2CCCCC2)=NC12CCN(S(=O)(=O)c1ccc3c(c1)OCCO3)CC2 [Compound 60, 2-cyclohexyl-8-(2,3-dihydro-benzo[1,4]dioxine-6-sulfonyl)-1,3,8-triaza-spiro[4.5]dec-1-en-4-one], the “cAMP production activity (%)” value was 34%.
